# Measured values as given in US20210015134A1, “CONSUMABLES” (Givaudan S.A., priority 2006, published 2021).
# Legend:
# Format in all cases: in vivo
# [1] = system: sweet sensitive panelists; experiment: Paired comparison of sweetness enhancers in water versus sucrose (Example 4, modified)
# Procedure: Paired Comparisons of Sweetness Enhancers and Mixtures Thereof in Water and 7% Sucrose
# Samples of sweetness enhancers were prepared in water or 7% sucrose. One, two or three sweetness enhancers were used in a sample. All samples were presented to panelists at ambient temperature. The sensory evaluation was conducted using a paired comparison method. […] Samples were paired randomly and presented in unidentifiable pairs of two (left and right) to the panelists in random order. The sample on the left was tasted first, followed by rinsing the mouth with water, then tasting the sample on the right. Once completing the sequence, each panelist ranked the pair of samples for sweetness then evaluated samples with respect to one another with the following descriptors (in ascending order): […]
# [2] = system: sweet sensitive subjects; experiment: Sweetness quality evaluation (time of onset, localization, duration)
# Procedure: Rebaudioside A (99%+, purified from plant extract, Sweet Aloha Farms, LLC) (1 ppm, 10 ppm, 20 ppm, 30 ppm) in 2% sucrose samples was evaluated for the qualities of the sweetness of the samples (time of onset, localization, duration). The sensory evaluations were conducted as follows. All samples were presented at ambient temperature in 15 ml aliquots and presented blindly to sweet sensitive subjects of varying sweet sensitivity. Subjects tasted the samples and were asked to evaluate the quality of sweetness. Sucrose solutions (2% and 7%) were presented as references.
# Rebaudioside A (99%+, purified from plant extract, Sweet Aloha Farms, LLC) (1 ppm, 10 ppm, 20 ppm, 30 ppm) in 7% sucrose samples were evaluated for the qualities of the sweetness of the samples (time of onset, localization, duration). The sensory evaluations were conducted as follows. All samples were presented at ambient temperature in 15 ml aliquots and presented blindly to sweet sensitive subjects of varying sweet sensitivity. Subjects tasted the samples and were asked to evaluate the quality of the sweetness. Sucrose solutions (2% and 7%) were presented as references to evaluate the sweetness of the rebaudioside A samples.
# Stevioside extract (95%+, purified from plant extract, Apin Chemicals) (20 ppm, 30 ppm, 40 ppm, 50 ppm) was evaluated in 2% sucrose for the qualities of the sweetness of the samples (time of onset, localization, duration). The sensory evaluations were conducted as follows. All samples were presented at ambient temperature in 15 ml aliquots and presented blindly to sweet sensitive subjects of varying sweet sensitivity. Subjects tasted the samples and were asked to evaluate the sweetness qualities. Sucrose solutions (2% and 7%) were presented as references.
# Stevioside (20 ppm, 30 ppm, 40 ppm, 50 ppm) was evaluated in 7% sucrose for the qualities of the sweetness of the samples (time of onset, localization, duration). The sensory evaluations were conducted as follows. All samples were presented at ambient temperature in 15 ml aliquots and presented blindly to sweet sensitive subjects of varying sweet sensitivity. Subjects tasted the samples and were asked to evaluate the sweetness qualities. Sucrose solutions (2% and 7%) were presented as references to evaluate the sweetness of the stevioside samples.
# [3] = system: sweet sensitive panelists; experiment: Comparative sensory evaluation of sweetness enhancers in sweetener solution or water (Example 1)
# Procedure: Comparative sensory evaluation of sweetness enhancers in 2 or 7% sucrose
# The test samples contained the potential sweetness enhancers in 0% sucrose (water), 2% sucrose, or 7% sucrose, and control samples of 0%, 2% and 7% sucrose without any additive. The sensory evaluations were conducted as follows. All samples were presented at ambient temperature in 15 ml aliquots to panels consisting of 5-9 sweet sensitive subjects of varying sweet sensitivity. After tasting each sample, the mouth was rinsed thoroughly with water at ambient temperature prior to tasting the next sample. The sucrose positive control (2% or 7%) was presented first and served as the sweetness reference to which all sweetness enhancer/sucrose combinations were directly compared.
# One tasting sequence included tasting the sucrose control first, rinsing with water, tasting the sweetness enhancer/sucrose sample, rinsing with water followed by tasting the sucrose control again. Once the sequence was completed, each panelist chose the sample which was sweeter and evaluated the sweetness of each sample relative to one another.
# In a second tasting sequence, this same procedure was followed for the water negative control versus the sweetness enhancer/water samples to determine the sweet taste due to the sweetness enhancer itself at each tested concentration.
# Panelists evaluated the sweetness of the sweetness enhancer in water for each concentration. For their evaluation, panelists were allowed to compare any perceived sweetness of the sweetness enhancer to the 2% or 7% sucrose control to determine the relative intensity of sweetness. Mild sweet taste corresponds to the taste of 2% sucrose, strong sweet taste corresponds to the taste of 7% sucrose.
# Alternatively to sucrose, the evaluation may be performed with another sweetener, for example, high fructose (55%) corn syrup (HFCS, containing 55% fructose and 45% glucose), erythritol, sucralose, aspartame, or acesulfame potassium (AceK).
compound,measurement,setting,value
C=C1C[C@@]23CC[C@H]4[C@@](C)(CCC[C@@]4(C)C(=O)O[C@@H]4O[C@H](CO)[C@@H](O)[C@H](O)[C@H]4O)[C@@H]2CC[C@]1(O[C@@H]1O[C@H](CO)[C@@H](O)[C@H](O)[C@H]1O[C@@H]1O[C@H](CO)[C@@H](O)[C@H](O)[C@H]1O)C3 [Stevioside],Result of comparison,[1]; 20 ppm in water vs 0% sucrose,weakly sweeter
same,Result of comparison,[1]; 20 ppm in water vs 0.5% sucrose,notably less sweet
same,isointensity to sucrose solution,[1]; 30 ppm in water,0.5 % sucrose
same,Result of comparison,[1]; 30 ppm in water vs 0% sucrose,weakly sweeter
same,Result of comparison,[1]; 30 ppm in water vs 0.5% sucrose,isosweet
same,Result of comparison,[1]; 30 ppm in water vs 1% sucrose,significantly less sweet
same,Result of comparison,[1]; 40 ppm in water vs 0.5% sucrose,notably sweeter
same,Result of comparison,[1]; 40 ppm in water vs 1% sucrose,less sweet
same,isointensity to sucrose solution,"[1]; 40 ppm in water, by interpolation",0.75 % sucrose
same,isointensity to sucrose solution,[1]; 50 ppm in water,1 % sucrose
same,Result of comparison,[1]; 50 ppm in water vs 0.5% sucrose,sweeter
same,Result of comparison,[1]; 50 ppm in water vs 1% sucrose,isosweet
same,Result of comparison,[1]; 50 ppm in water vs 1.5% sucrose,significantly less sweet
same,Result of comparison,[1]; 60 ppm in water vs 1% sucrose,notably sweeter
same,Result of comparison,[1]; 60 ppm in water vs 1.5% sucrose,less sweet
same,isointensity to sucrose solution,"[1]; 60 ppm in water, by interpolation",1.25 % sucrose
same,"Sensory evaluation of sweetness intensity (onset, localisation, duration)",[2]; 20 ppm in 2% sucrose,"immediate onset, full mouth sweet, not lingering"
same,"Sensory evaluation of sweetness intensity (onset, localisation, duration)",[2]; 20 ppm in 7% sucrose,"immediate onset, full mouth sweet, not lingering"
same,"Sensory evaluation of sweetness intensity (onset, localisation, duration)",[2]; 30 ppm in 2% sucrose,"immediate onset, full mouth sweet, not lingering"
same,"Sensory evaluation of sweetness intensity (onset, localisation, duration)",[2]; 30 ppm in 7% sucrose,"immediate onset, full mouth sweet, not lingering"
same,"Sensory evaluation of sweetness intensity (onset, localisation, duration)",[2]; 40 ppm in 2% sucrose,"immediate onset, full mouth sweet, not lingering"
same,"Sensory evaluation of sweetness intensity (onset, localisation, duration)",[2]; 40 ppm in 7% sucrose,"immediate onset, full mouth sweet, not lingering"
same,Sensory evaluation of sweetness intensity,[3]; 20 ppm in 2% sucrose,notably sweeter than sucrose control
same,Sensory evaluation of sweetness intensity,[3]; 20 ppm in 7% sucrose,notably sweeter than sucrose control
same,Sensory evaluation of sweetness intensity,[3]; 20 ppm in water (Example 9A),barely detectable sweetness
same,Sensory evaluation of sweetness intensity,[3]; 20 ppm in water (Example 9B),barely detectable sweetness
same,Sensory evaluation of sweetness intensity,[3]; 30 ppm in 2% sucrose,much sweeter than sucrose control
same,Sensory evaluation of sweetness intensity,[3]; 30 ppm in 7% sucrose,notably sweeter than sucrose control
same,Sensory evaluation of sweetness intensity,[3]; 30 ppm in water (Example 9A),"very weak, late onsetting sweetness"
same,Sensory evaluation of sweetness intensity,[3]; 30 ppm in water (Example 9B),"very weak, late onsetting sweetness"
same,Sensory evaluation of sweetness intensity,[3]; 40 ppm in 2% sucrose,much sweeter than sucrose control
same,Sensory evaluation of sweetness intensity,[3]; 40 ppm in 7% sucrose,much sweeter than sucrose control
same,Sensory evaluation of sweetness intensity,[3]; 40 ppm in water (Example 9A),weak late onsetting sweetness
same,Sensory evaluation of sweetness intensity,[3]; 40 ppm in water (Example 9B),"weak sweetness, late onsetting sweetness"
same,Sensory evaluation of sweetness intensity,[3]; 50 ppm in 2% sucrose,much sweeter than sucrose control
same,Sensory evaluation of sweetness intensity,[3]; 50 ppm in 7% sucrose,much sweeter than sucrose control
same,Sensory evaluation of sweetness intensity,[3]; 50 ppm in water (Example 9A),"weak sweetness, faster onset than 40 ppm,"
same,Sensory evaluation of sweetness intensity,[3]; 50 ppm in water (Example 9B),"weak sweetness, faster onset than 40 ppm,"
same,Sensory evaluation of sweetness intensity,[3]; 60 ppm in 2% sucrose,substantially sweeter than sucrose control
same,Sensory evaluation of sweetness intensity,[3]; 60 ppm in 7% sucrose,substantially sweeter than sucrose control
same,Sensory evaluation of sweetness intensity,[3]; 60 ppm in water (Example 9A),"weak sweetness, faster onset than 50 ppm,"
same,Sensory evaluation of sweetness intensity,[3]; 60 ppm in water (Example 9B),"weak sweetness, faster onset than 50 ppm,"
